The numbers were not newly measured in patent publication US11369617B2, “Prostacyclin analogue formulations” (CAMURUS AB, priority 2016, dated 2022), which cites them from elsewhere.

The conditions of this data set: regular s.c. administration.

Regarding `CCCCC[C@H](O)CC[C@@H]1[C@H]2Cc3cccc(OCC(=O)O)c3C[C@H]2C[C@H]1O` [treprostinil], the “administration-site pain, patients experiencing it” value was 85 % of patients. Besides, the “withdrawals due to adverse events” value (almost all due to site pain) is 23 % of the long-term study population.
